From US7923561B2 (Hoffmann-La Roche Inc., priority 2006, dated 2011) come the findings set out here.

The target in one series is T1, recombinant human 5-HT5A receptor (Homo sapiens, UniProt P47898).
T1 construct: expressed in transfected cells; host or cells: HEK-EBNA (Human Embryonic Kidney-EBNA) cells, transient cDNA expression, membranes
T1 sequence (P47898 whole entry): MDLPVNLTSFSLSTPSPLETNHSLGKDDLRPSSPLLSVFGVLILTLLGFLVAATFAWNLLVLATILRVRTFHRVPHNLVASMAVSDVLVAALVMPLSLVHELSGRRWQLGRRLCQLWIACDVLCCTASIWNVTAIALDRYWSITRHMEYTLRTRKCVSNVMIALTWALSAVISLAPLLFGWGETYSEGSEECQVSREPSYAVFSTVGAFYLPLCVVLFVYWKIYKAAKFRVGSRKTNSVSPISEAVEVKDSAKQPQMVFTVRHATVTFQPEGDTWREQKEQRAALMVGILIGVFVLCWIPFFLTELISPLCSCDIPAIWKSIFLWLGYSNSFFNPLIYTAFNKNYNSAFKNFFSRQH
The series can be described thus: [3H]LSD radioligand binding assay, membranes of HEK-EBNA cells transiently expressing 5-HT5A receptors. Conditions: [3H]LSD approx. 1 nM, SPA beads, 120 min at room temperature; Ki from IC50 by Cheng-Prussoff equation. Here is the method:
A [^3H]LSD radioligand binding assay was used to determine the affinity of the compounds for the recombinant human 5-HT5A receptor, in membranes from transiently (cDNA) expressed 5-HT5A receptors in Human Embryonic Kidney-EBNA (HEK-EBNA) cells. Assay buffer consisted of Tris (50 mM) buffer containing 1 mM EGTA, 10 mM MgCl2 (pH 7.4) and 10 μM pargyline. The binding assay was carried out in 96-well-plates in the presence of [^3H]LSD (approximately 1 nM), approximately 2 μg/well of membrane protein, and 0.5 mg of Ysi-poly-1-lysine SPA beads in a final volume of 200 μl of buffer. Non-specific binding was defined using methiothepin 2 μM. Compounds were tested at 10 concentrations. All assays were conducted in duplicate and repeated at least two times. Assay plates were incubated for 120 min at room temperature before centrifugation. Bound ligand was determined using a Packard Topcount scintillation counter. IC50 values were calculated using a non-linear curve fitting program and Ki values calculated using the Cheng-Prussoff equation.
As to `c1ccc2c(c1)CC[C@H]2Nc1ccc2c(NCc3cnc[nH]3)cccc2n1` [Example 43, N5-(3H-Imidazol-4-ylmethyl)-N2-(R)-indan-1-yl-quinoline-2,5-diamine], the Ki came to 0.00645 µM.

Regarding `O=C(Nc1cccc2nc(N[C@@H]3CCc4ccccc43)ccc12)c1cc(F)cc(F)c1` [Example 45, 3,5-Difluoro-N-[2-((R)-indan-1-ylamino)-quinolin-5-yl]-benzamide], the Ki came to 0.0977 µM.

In the case of `c1ccc2c(c1)CC[C@H]2Nc1ccc2c(NCc3ncc[nH]3)cccc2n1` [Example 49, N5-(1H-Imidazol-2-ylmethyl)-N2-(R)-indan-1-yl-quinoline-2,5-diamine], the Ki is 0.0225 µM.

Consider `c1ccc2c(c1)CC[C@H]2Nc1ccc2c(NCc3cc[nH]n3)cccc2n1` [Example 50, N2-(R)-Indan-1-yl-N5-(1H-pyrazol-3-ylmethyl)-quinoline-2,5-diamine], for which the inhibition constant (Ki) amounted to 0.0136 µM.

In the case of `Cc1nc(CNc2cccc3nc(N[C@@H]4CCc5ccccc54)ccc23)c[nH]1` [Example 53], the Ki worked out at 0.00757 µM.

As to `Cn1cc(CNc2cccc3nc(N[C@@H]4CCc5ccccc54)ccc23)cn1` [Example 55, N2-(R)-Indan-1-yl-N5-(1-methyl-1H-pyrazol-4-ylmethyl)-quinoline-2,5-diamine], the Ki was determined as 0.0255 µM.

For `c1ccc2c(c1)CC[C@H]2Nc1ccc2c(NCc3cccc4[nH]ccc34)cccc2n1` [Example 56, N2-(R)-Indan-1-yl-N5-(1H-indol-4-ylmethyl)-quinoline-2,5-diamine], the Ki was 0.00165 µM.

For `COc1cccc2c1C(Nc1ccc3c(NCc4c[nH]cn4)cccc3n1)CC2` (stereo not shown) [Example 58, N5-(1H-Imidazol-4-ylmethyl)-N2-(7-methoxy-indan-1-yl)-quinoline-2,5-diamine], the Ki worked out at 0.00236 µM.

Consider `c1ccc(-c2cccc3nc(N[C@@H]4CCc5ccccc54)ccc23)cc1` [Example 63, (R)-Indan-1-yl-(5-phenyl-quinolin-2-yl)-amine], for which the Ki came to 0.229 µM.

Take `CN(C)CCOc1ccccc1CNc1cccc2nc(N[C@@H]3CCc4ccccc43)ccc12` [Example 64, N5-[2-(2-Dimethylamino-ethoxy)-benzyl]-N2-(R)-indan-1-yl-quinoline-2,5-diamine]: the Ki is 0.00603 µM.

For the compound `Cc1ccccc1-c1cccc2nc(N[C@@H]3CCc4ccccc43)ccc12` [Example 65, (R)-Indan-1-yl-(5-o-tolyl-quinolin-2-yl)-amine], the Ki came to 0.173 µM.

Consider `c1cncc(-c2cccc3nc(N[C@@H]4CCc5ccccc54)ccc23)c1` [Example 66, (R)-Indan-1-yl-(5-pyridin-3-yl-quinolin-2-yl)-amine], for which the Ki turned out to be 0.32 µM.

`c1ccc2c(c1)CC[C@H]2Nc1ccc2c(Nc3cccc4cc[nH]c34)cccc2n1` [Example 69, N2-(R)-Indan-1-yl-N5-(1H-indol-7-yl)-quinoline-2,5-diamine]: the Ki stood at 0.00561 µM.

For `c1ccc2c(c1)CC[C@H]2Nc1ccc2c(Nc3cccc4[nH]ccc34)cccc2n1` [Example 71, N2-(R)-Indan-1-yl-N5-(1H-indol-4-yl)-quinoline-2,5-diamine], the Ki came out at 0.00294 µM.

Regarding `c1ccc2c(c1)CC[C@H]2Nc1ccc2c(Nc3ccc4[nH]ccc4c3)cccc2n1` [Example 72, N2-(R)-Indan-1-yl-N5-(1H-indol-5-yl)-quinoline-2,5-diamine], the inhibition constant Ki came to 0.006 µM.

As for `c1ccc2c(c1)CC[C@H]2Nc1ccc2c(Nc3ccc4cc[nH]c4c3)cccc2n1` [Example 73, N2-(R)-Indan-1-yl-N5-(1H-indol-6-yl)-quinoline-2,5-diamine], the Ki turned out to be 0.0047 µM.

For `c1ccc2c(c1)CC[C@H]2Nc1ccc2c(-c3cccc4[nH]ccc34)cccc2n1` [Example 74, (R)-Indan-1-yl-[5-(1H-indol-4-yl)-quinolin-2-yl]-amine], the Ki came out at 0.0417 µM.

Consider `Clc1ccccc1-c1cccc2nc(N[C@@H]3CCc4ccccc43)ccc12` [Example 75, [5-(2-Chloro-phenyl)-quinolin-2-yl]-(R)-indan-1-yl-amine], for which the Ki turned out to be 0.127 µM.

Consider `Cc1cc(Nc2cccc3nc(N[C@@H]4CCc5ccccc54)ccc23)n(C)n1` [Example 76, N5-(2,5-Dimethyl-2H-pyrazol-3-yl)-N2-(R)-indan-1-yl-quinoline-2,5-diamine], for which the Ki is 0.033 µM.

On to `Fc1ccc(Nc2cccc3nc(N[C@@H]4CCc5ccccc54)ccc23)cc1` [Example 77, N5-(4-Fluoro-phenyl)-N2-(R)-indan-1-yl-quinoline-2,5-diamine], for which the Ki was found to be 0.00638 µM.

For the compound `O=C(Nc1cccc2nc(N[C@@H]3CCc4ccccc43)ccc12)c1ccc(F)cc1` [Example 78, 4-Fluoro-N-[2-((R)-indan-1-ylamino)-quinolin-5-yl]-benzamide], the Ki stood at 0.0916 µM.

In the case of `Cc1nc(-c2cccc3nc(N[C@@H]4CCc5ccccc54)ccc23)no1` [Example 79, (R)-Indan-1-yl-[5-(5-methyl-[1,2,4]oxadiazol-3-yl)-quinolin-2-yl]-amine], the inhibition constant Ki was found to be 0.134 µM.

On to `O=C(NCc1cccc2nc(N[C@@H]3CCc4ccccc43)ccc12)c1ccc(F)cc1` [Example 80, 4-Fluoro-N-[2-((R)-indan-1-ylamino)-quinolin-5-ylmethyl]-benzamide], for which the Ki worked out at 0.0344 µM.

Consider `Fc1ccc(CNCc2cccc3nc(N[C@@H]4CCc5ccccc54)ccc23)cc1` [Example 81, {5-[(4-Fluoro-benzylamino)-methyl]-quinolin-2-yl}-(R)-indan-1-yl-amine], for which the Ki worked out at 0.151 µM.

As for `N=C(c1ccc(F)cc1)c1cccc2nc(N[C@@H]3CCc4ccccc43)ccc12` [Example 82, {5-[(4-Fluoro-phenyl)-imino-methyl]-quinolin-2-yl}-(R)-indan-1-yl-amine], the Ki came to 0.00782 µM.

Take `O=C(c1ccc(F)cc1)c1cccc2nc(N[C@@H]3CCc4ccccc43)ccc12` [Example 83, (4-Fluoro-phenyl)-[2-((R)-indan-1-ylamino)-quinolin-5-yl]-methanone]: the inhibition constant Ki was determined as 0.0115 µM.

As to `N=C(c1ccccc1)c1cccc2nc(N[C@@H]3CCc4ccccc43)ccc12` [Example 84, [5-(Imino-phenyl-methyl)-quinolin-2-yl]-(R)-indan-1-yl-amine], the Ki is 0.0171 µM.

On to `O=C(c1ccccc1)c1cccc2nc(N[C@@H]3CCc4ccccc43)ccc12` [Example 85, [2-((R)-Indan-1-ylamino)-quinolin-5-yl]-phenyl-methanone], for which the Ki is 0.0241 µM.

Regarding `O=S(=O)(Nc1ccc(F)cc1)Nc1cccc2nc(N[C@@H]3CCc4ccccc43)ccc12` [Example 86, N-{2-[(1R)-2,3-dihydro-1H-inden-1-ylamino]quinolin-5-yl}-N′-(4-fluorophenyl)sulfamide], the Ki was 0.01 µM.

Take `Fc1cc(F)cc(CNc2cccc3nc(NC4Cc5ccccc5C4)ccc23)c1` [Example 87, N5-(3,5-Difluoro-benzyl)-N2-indan-2-yl-quinoline-2,5-diamine]: the Ki was found to be 0.0562 µM.

As for `c1ccc2c(c1)CC(Nc1ccc3c(NCc4cccc5[nH]ccc45)cccc3n1)C2` [Example 88, N2-Indan-2-yl-N5-(1H-indol-4-ylmethyl)-quinoline-2,5-diamine], the inhibition constant (Ki) came to 0.0443 µM.

For `ON=C(c1ccc(F)cc1)c1cccc2nc(N[C@@H]3CCc4ccccc43)ccc12` [Example 89, (4-Fluoro-phenyl)-[2-((R)-indan-1-ylamino)-quinolin-5-yl]-methanone oxime], the Ki came to 0.0023 µM.

Regarding `COc1ccc(C(=O)c2cccc3nc(N[C@@H]4CCc5ccccc54)ccc23)cc1` [Example 93, [2-((R)-Indan-1-ylamino)-(4-methoxy-phenyl)-quinolin-5-yl]-methanone], the Ki is 0.0158 µM.

As to `O=C(c1cccc(F)c1)c1cccc2nc(N[C@@H]3CCc4ccccc43)ccc12` [Example 94, (3-Fluoro-phenyl)-[2-((R)-indan-1-ylamino)-quinolin-5-yl]-methanone], the Ki was determined as 0.117 µM.

As to `COc1ccc(C(=NO)c2cccc3nc(N[C@@H]4CCc5ccccc54)ccc23)cc1` [Example 95, [2-((R)-Indan-1-ylamino)-(4-methoxy-phenyl)-quinolin-5-yl]-methanone oxime], the Ki is 0.00411 µM.

With `Cc1ccc(C(=O)c2cccc3nc(N[C@@H]4CCc5ccccc54)ccc23)cc1` [Example 97, [2-((R)-Indan-1-ylamino)-(4-methyl-phenyl)-quinolin-5-yl]-methanone], the Ki was found to be 0.0374 µM.

For `CON=C(c1ccc(C)cc1)c1cccc2nc(N[C@@H]3CCc4ccccc43)ccc12` [Example 98, [2-((R)-Indan-1-ylamino)-(4-methyl-phenyl)-quinolin-5-yl]-methanone O-methyl-oxime], the Ki was determined as 0.0498 µM.

For the compound `Cc1ccc(C(=NO)c2cccc3nc(N[C@@H]4CCc5ccccc54)ccc23)cc1` [Example 99, [2-((R)-Indan-1-ylamino)-(4-methyl-phenyl)-quinolin-5-yl]-methanone oxime], the inhibition constant (Ki) was 0.0018 µM.

Consider `O=C(c1cc(F)cc(F)c1)c1cccc2nc(N[C@@H]3CCc4ccccc43)ccc12` [Example 100, (3,5-Difluoro-phenyl)-[2-((R)-indan-1-ylamino)-quinolin-5-yl]-methanone], for which the Ki came out at 0.264 µM.

Turning to “(4-Chloro-phenyl)-[2-((R)-indan-1-ylamino)-quinolin-5-yl]-methanone [Example 90]”, the Ki came to 0.0497 µM.

System in the next series: not given
Test: not given
Details: not given
Regarding `Cc1nc(-c2cccc3nc(N[C@@H]4CCc5ccccc54)ccc23)no1` [Example 79, (R)-Indan-1-yl-[5-(5-methyl-[1,2,4]oxadiazol-3-yl)-quinolin-2-yl]-amine], the melting point amounted to 105 °C.

As to `O=C(NCc1cccc2nc(N[C@@H]3CCc4ccccc43)ccc12)c1ccc(F)cc1` [Example 80, 4-Fluoro-N-[2-((R)-indan-1-ylamino)-quinolin-5-ylmethyl]-benzamide], the melting point was 145 °C.

`ON=C(c1ccc(F)cc1)c1cccc2nc(N[C@@H]3CCc4ccccc43)ccc12` [Example 89, (4-Fluoro-phenyl)-[2-((R)-indan-1-ylamino)-quinolin-5-yl]-methanone oxime] had a melting point of 184 °C.
